Laboratory results reported in patent publication US11680047B2, “Enhanced erythropoiesis and iron metabolism” (FibroGen, Inc., priority 2003, dated 2023).

What was measured:
E-selectin [1] = experiment: IL-1β induced E-selectin expression in HUVEC; assay type: cell-based, human; details: 1 ng/ml IL-1β, 1 day
Procedure: To investigate the effect of HIF prolyl hydroxylase inhibition on IL-1β induced E-selectin expression, HUVECs were stimulated with 1 ng/ml IL-1β in the absence or presence of various concentrations of compound B or compound C for 1 day. E-selectin expression was then measured.

VCAM-1 [2] = experiment: IL-1β induced VCAM-1 expression in HUVEC; assay type: cell-based, human; details: IL-1β 1 ng/ml, 1 day
Procedure: (§1) To investigate the effect of HIF prolyl hydroxylase inhibition on IL-1β induced VCAM-1 expression, HUVEC (human umbilical vein endothelial cells) were stimulated with IL-1β in the absence or presence of various concentrations of compound B or compound C for 1 day. VCAM expression was then measured.

E-selectin [3] = experiment: TNF-α induced E-selectin expression in HUVEC; assay type: cell-based, human; details: 1 ng/ml TNF-α, various concentrations, 1 day
Source text: (§2) Endothelial E-selectin belongs to the selectin family of cellular adhesion molecules mediating the initial attachment of leukocytes to vascular endothelial cells in inflammatory events. IL-1β, TNF-α, and lipopolysaccharides each induce the expression of E-selectin. (See, e.g., Bevilacqua et al. (1987) Proc Natl Acad Sci USA 84:9238-9242 and Bevilacqua and van Furth (1993) J Leukoc Biol 54:363-378.) To investigate the effect of HIF prolyl hydroxylase inhibition on TNF-α induced E-selectin expression, HUVECs were stimulated with 1 ng/ml TNF-α in the absence or presence of various concentrations of compound B or compound C for 1 day. E-selectin and VCAM expression were then measured.

VCAM-1 [4] = experiment: TNF-α induced VCAM-1 expression in HUVEC; assay type: cell-based, human; details: TNF-α 1 ng/ml, 1 day
Source text: as §1, with “Endothelial cell adhesiveness for lymphocytes occurs, in part, by endothelial cell expression of vascular cell adhesion molecule (VCAM)-1. VCAM-1 expression in endothelial cells is induced by various inflammatory cytokines, such as TNF-α. To” for “To”, “TNF-α” for “IL-1β”
as §2

NRAMP2 = NRAMP2 mRNA in small intestine of mice after IV administration (microarray); assay type: in vivo, mouse; details: 60 mg/kg IV, 4 hours
Procedure: In another experiment, mRNA was isolated from small intestine harvested 4 hours following IV administration of 60 mg/kg compound A, compound B, and compound C to mice. Probes were prepared from each of two animals from 5 treatment groups, and hybridized to Affymetrix mouse MOE430Aplus2 microarrays (one animal per array). Statistical comparisons of data obtained from arrays from treated versus non-treated animals was performed. […] Expression levels are shown as fold-induction over control, untreated animals for each expressed gene.

E-selectin [5] = experiment: Cell surface E-selectin (cell-based ELISA) in HUVEC pretreated with compound, then cytokines; design: species or system human; details: HUVEC pretreated 24 hours
Procedure: HUVEC were treated with vehicle control or various concentrations of compound B or compound C for 24 hours. Cells were washed and then stimulated with either 1 ng/ml TNF-α, 1 ng/ml IL-1β, or a combination of 1 ng/ml each of TNF-α, IL-1β, and IFN-γ for 4 hours. Cell surface expression of E-selectin was measured by cell-based ELISA.

Ceruloplasmin (CP) = experiment: Microarray gene expression in Hep3B cells: ceruloplasmin; assay type: cell-based, human; details: 2 μM, 6 hr
Procedure: Hep3B cells (ATCC No. HB-8064) were grown in DMEM containing 8% fetal bovine serum. Hep3B cells were seeded into 6-well culture dishes at ˜500,000 cells per well. After 8 hours, the media was changed to DMEM containing 0.5% fetal bovine serum and the cells were incubated for an additional 16 hours. Compound B or compound D was added to the cells (2 μM final concentration) and the cells were incubated for various times. Control cells (no compound treatment, addition of DMSO alone) were harvested at 0, 6 and 48 hours. Harvested cells were assessed for cell viability (GUAVA), or added to RNA extraction buffer (RNeasy, Qiagen) and stored at −20° C. for subsequent RNA purification. Replicate microarrays were generated using RNA isolated from replicate experiments conducted on different days. Total RNA was isolated from cells using the RNeasy kit (Qiagen).
RNA was precipitated in 0.3 M sodium acetate (pH 5.2), 50 ng/ml glycogen, and 2.5 volumes of ethanol for one hour at −20° C. Samples were centrifuged and pellets were washed with cold 80% ethanol, dried, and resuspend in water. Double stranded cDNA was synthesized using a T7-(dT)24 first strand primer (Affymetrix, Inc., Santa Clara Calif.) and the SUPERSCRIPT CHOICE system (Invitrogen) according to the manufacturer's instructions. The final cDNA was extracted with an equal volume of 25:24:1 phenol:chloroform:isoamyl alcohol using a PHASE LOCK GEL insert (Brinkman, Inc., Westbury N.Y.). The aqueous phase was collected and cDNA was precipitated using 0.5 volumes of 7.5 M ammonium acetate and 2.5 volumes of ethanol. Alternatively, cDNA was purified using the GENECHIP sample cleanup module (Affymetrix) according to the manufacturer's instructions.
Biotin-labeled cRNA was synthesized from the cDNA in an in vitro […] (IVT) reaction using a BIOARRAY HighYield RNA transcript labeling kit (Enzo Diagnostics, Inc., Farmingdale N.Y.) according to the manufacturer's instructions. Final labeled product was purified and fragmented using the GENECHIP sample cleanup module (Affymetrix) according to the manufacturer's instructions.
Hybridization cocktail was prepared by bringing […] probe to […] in 1× hybridization buffer (100 mM MES, 1 M [Na^+], 20 mM EDTA, 0.01% Tween 20), 100 µg/ml herring sperm DNA, 500 µg/ml acetylated BSA, 0.03 nM contol oligo B2 (Affymetrix), and 1×GENECHIP eukaryotic hybridization control (Affymetrix). The cocktail was sequentially incubated at 99° C. for 5 minutes and 45° C. for 5 minutes, and then centrifuged for 5 minutes. The Human Genome U133A array (Affymetrix) was brought to room temperature and then prehybridized with 1× hybridization buffer at 45° C. for 10 minutes with rotation. The buffer was then replaced with […] hybridization cocktail and the array was hybridized for 16 hours at 45° C. at 60 rpm with counter balance. Following hybridization, arrays were washed once with 6×SSPE, 0.1% Tween 20, and then washed and stained using R-phycoerythrin-conjugated streptavidin (Molecular Probes, Eugene Oreg.), goat anti-streptavidin antibody (Vector Laboratories, Burlingame Calif.), and a GENECHIP Fluidics Station 400 instrument (Affymetrix) according to the manufacturer's micro_1v1 protocol (Affymetrix). Arrays were analyzed using a GENEARRAY scanner (Affymetrix) and Microarray Suite software (Affymetrix).
The Human Genome U133A array (Affymetrix) represents all sequences in the Human Unigene database build 133 (National Center for Biotechnology Information, Bethesda Md.), including approximately 14,500 well-characterized human genes.
RNA quality was monitored by capillary electrophoresis (Agilent Bioanalyzer). Hybridization cocktails were prepared as described (Affymetrix), and hybridized to Affymetrix human U133A arrays containing 22,283 probe sets. Array performance was analyzed with Affymetrix MicroArray Suite (MAS) software and individual probe sets were assigned “present”, “marginal, and “absent” calls according to software defaults. […]

[6] = test system: erythropoietin-resistant anemia; details: Salvarani et al. (1996); Goch et al. (1995); cited from earlier work
EPO production = experiment: Secreted EPO (ELISA) in Hep3B cells treated with IL-6; assay type: cell-based; details: 10 ng/ml IL-6, absence of compound
Procedure: Secreted EPO levels were determined using a commercially available ELISA kit (R&D Systems, catalog no. DEP00). […] As shown in FIGS. 27A and 27B, Hep3B cells treated with IL-6 increased EPO expression slightly above that in non-treated cells. Specifically, EPO levels in control cells was approximately 20 mIU/ml, while that in cells treated with 10 ng/ml IL-6 was approximately 50 mIU/ml.

O=C(O)CNC(=O)c1ncc2cc(Sc3ccccc3)ccc2c1O [C, [(4-Hydroxy-7-phenylsulfanyl-isoquinoline-3-carbonyl)-amino]-acetic acid]
inhibition of IL-1β induced E-selectin expression (E-selectin [1]): dose-dependent inhibition of IL-1β induced E-selectin expression
inhibition of IL-1β induced VCAM-1 expression (VCAM-1 [2]): does-dependent inhibition of IL-1β induced VCAM-1 expression
inhibition of TNF-α induced E-selectin expression (E-selectin [3]): dose-dependent inhibition of TNF-α induced VCAM and E-selectin expression
inhibition of TNF-α induced VCAM-1 expression (VCAM-1 [4]): does-dependent inhibition of TNF-α induced VCAM-1 expression
NRAMP2 mRNA expression in small intestine (NRAMP2): increasing expression of NRAMP2 in intestine
induction of cell surface E-selectin expression (E-selectin [5]; then 1 ng/ml TNF-α or 1 ng/ml IL-1β for 4 hours): inhibited the induction of cell surface E-selectin expression
cell surface E-selectin expression (E-selectin [5]; then TNF-α, IL-1β and IFN-γ, 1 ng/ml each, 4 hours): decreased E-selectin expression

COc1ccc(CCN(CCC(=O)NO)S(=O)(=O)c2ccc(NC(=O)N(Cc3ccccc3)Cc3ccccc3)cc2)cc1 [Compound D, 3-{[4-(3,3-Dibenzyl-ureido)-benzenesulfonyl]-[2-(4-methoxy-phenyl)-ethyl]-amino}-N-hydroxy-propionamide]
Ceruloplasmin (CP) fold-increase in mRNA levels above control, first data point (Ceruloplasmin (CP)): 2.06 fold
Ceruloplasmin (CP) fold-increase in mRNA levels above control, second data point (Ceruloplasmin (CP)): 2.387 fold

CC(=O)N(O)CCCCCNC(=O)CCC(=O)N(O)CCCCCNC(=O)CCC(=O)N(O)CCCCCN [desferrioxamine]
efficacy in erythropoietin-resistant anemia, e.g., anemia of chronic disease [6]: some efficacy

IL-6: cytokine added to Hep3B cells, alone or with compound A or compound B [reference compound]
EPO levels (EPO production): approximately 50 mIU/ml
